Reference: ChEMBL document CHEMBL1201862, “PubChem BioAssay data set” (2004)
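Briefly, cells in 96-well plates were exposed to five compound concentrations for 48 h, and endpoints were estimated by linear interpolation. Abbreviation: GI50, concentration required for 50% inhibition of growth.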 The source made the active and inactive calls. Rule as the data show it: active = GI50 up to about 1.1 µM and inactive = higher.

What was measured:
Test in all cases: DTP human tumour cell line panel, 48 h
SK-MEL-28 = system: SK-MEL-28
OVCAR-8 = system: OVCAR-8
SF-539 = system: SF-539
CCRF-CEM = system: CCRF-CEM
KM12 = system: KM12
RPMI-8226 = system: RPMI-8226
K562 = system: K562
MOLT-4 = system: MOLT-4
SN12C = system: SN12C
NCI-H460 = system: NCI-H460
EKVX = system: EKVX
HT-29 = system: HT-29
UO-31 = system: UO-31
SNB-75 = system: SNB-75
SK-MEL-5 = system: SK-MEL-5
NCI/ADR-RES = system: NCI/ADR-RES
LOX IMVI = system: LOX IMVI
A549 = system: A549
SK-MEL-2 = system: SK-MEL-2
SF-295 = system: SF-295

Measured: GI50

Cc1cc(C)c(S(=O)(=O)N(CCCCN)OCCCN)c(C)c1
inactive: SK-MEL-28 18.3 µM | OVCAR-8 17.4 µM | SF-539 21.8 µM | CCRF-CEM 15.7 µM | KM12 19.5 µM | RPMI-8226 8.04 µM | K562 13.9 µM | MOLT-4 11.7 µM | SN12C 18.7 µM | NCI-H460 19 µM | EKVX 16.4 µM | HT-29 14.3 µM | UO-31 17.5 µM | SNB-75 13.5 µM | SK-MEL-5 23.7 µM | NCI/ADR-RES 20.7 µM | LOX IMVI 15.2 µM | A549 19.3 µM | SK-MEL-2 15.1 µM | SF-295 19.6 µM

O=C(NC(Cc1ccc(I)cc1)C(=O)O)c1ccc(I)cc1 (stereo not given)
inactive: SK-MEL-28 53.3 µM | OVCAR-8 > 74.8 µM | SF-539 > 74 µM | CCRF-CEM 48.2 µM | KM12 > 100 µM | RPMI-8226 40.3 µM | K562 59.6 µM | MOLT-4 51.5 µM | SN12C > 100 µM | NCI-H460 57.9 µM | EKVX > 51.2 µM | HT-29 > 100 µM | UO-31 14.5 µM | SNB-75 21.2 µM | SK-MEL-5 > 75.3 µM | NCI/ADR-RES > 100 µM | LOX IMVI > 100 µM | A549 98.6 µM | SK-MEL-2 > 80.4 µM | SF-295 > 100 µM

COc1ccccc1Cc1nc(-c2ccccc2)nn(C2OC(COC(C)=O)C(OC(C)=O)C(OC(C)=O)C2OC(C)=O)c1=S (stereo not given)
inactive: SK-MEL-28 49.2 µM | OVCAR-8 5.64 µM | SF-539 9.14 µM | CCRF-CEM > 100 µM | KM12 > 54.6 µM | RPMI-8226 21.8 µM | K562 > 58.3 µM | MOLT-4 > 60 µM | SN12C 9.35 µM | NCI-H460 > 43.9 µM | EKVX 25.1 µM | HT-29 > 48.3 µM | UO-31 > 48.2 µM | SNB-75 3.08 µM | SK-MEL-5 8.73 µM | NCI/ADR-RES 9.1 µM | LOX IMVI 11.2 µM | A549 16.4 µM | SK-MEL-2 11.3 µM | SF-295 8.15 µM

CC1C(=O)C(C)C(c2cccs2)N(N=O)C1c1cccs1 (stereo not given)
inactive: SK-MEL-28 > 100 µM | OVCAR-8 > 100 µM | SF-539 > 100 µM | CCRF-CEM > 100 µM | KM12 > 100 µM | RPMI-8226 > 100 µM | K562 > 80.5 µM | MOLT-4 > 100 µM | SN12C > 100 µM | NCI-H460 > 100 µM | EKVX > 100 µM | HT-29 > 35 µM | UO-31 > 100 µM | SNB-75 28.1 µM | SK-MEL-5 > 100 µM | NCI/ADR-RES > 100 µM | LOX IMVI > 100 µM | A549 > 100 µM | SK-MEL-2 > 89.9 µM | SF-295 > 100 µM
